# Measured values reported in PubChem BioAssay AID330 (DTP/NCI, 2004).
# Where “and” joins values, the source holds several entries; their conditions need not be identical. Equal entries are not always repeated. Inconclusive results and toxic doses are left out.
# System: P388 leukemia ip, CD2F1 mice, survival T/C
# Assay: NCI In Vivo Anticancer Drug Screen. Data for tumor model P388 Leukemia (intraperitoneal) in CD2F1 (CDF1) mice
# Conditions: endpoint: median survival time, higher = longer survival
# Summary of the method: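 Mice carrying the transplanted tumor received test compound or vehicle. Survival was recorded in each group, and the value is the treated-group measurement divided by that of the vehicle-treated control group.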
# [1] = dose: 50.0 mg/kg/injection, schedule: Q01DX009 (ip), vehicle: saline with Tween-80
# [2] = dose: 100.0 mg/kg/injection, schedule: Q01DX009 (ip), vehicle: saline with Tween-80
# [3] = dose: 200.0 mg/kg/injection, schedule: Q01DX009 (ip), vehicle: saline with Tween-80
# [4] = dose: 50.0 mg/kg/injection, schedule: Q01DX005 (ip), vehicle: saline with Tween-80
# [5] = dose: 100.0 mg/kg/injection, schedule: Q01DX005 (ip), vehicle: saline with Tween-80
# [6] = dose: 200.0 mg/kg/injection, schedule: Q01DX005 (ip), vehicle: saline with Tween-80
# [7] = dose: 50.0 mg/kg/injection, schedule: Q01DX009 (ip), vehicle: saline
# [8] = dose: 100.0 mg/kg/injection, schedule: Q01DX009 (ip), vehicle: saline
# [9] = dose: 200.0 mg/kg/injection, schedule: Q01DX009 (ip), vehicle: saline
# [10] = dose: 60.0 mg/kg/injection, schedule: Q01DX005 (ip), vehicle: saline with Tween-80
# [11] = dose: 120.0 mg/kg/injection, schedule: Q01DX005 (ip), vehicle: saline with Tween-80
# [12] = dose: 240.0 mg/kg/injection, schedule: Q01DX005 (ip), vehicle: saline with Tween-80
structure (smiles),measurement,setting,value
CC12CC(C(O)(C(F)(F)F)C(F)(F)F)C(=O)C=C1CCC1C2CCC2(C)C(C(=O)CC(O)(C(F)(F)F)C(F)(F)F)CCC12 (centres undefined),T/C,"dose: 75.0 mg/kg/injection, schedule: Q01DX001 (sc), vehicle: steriod suspending solution",104 % of control
same,T/C,"dose: 150.0 mg/kg/injection, schedule: Q01DX001 (sc), vehicle: steriod suspending solution",122 % of control
same,T/C,"dose: 300.0 mg/kg/injection, schedule: Q01DX001 (sc), vehicle: steriod suspending solution",100 % of control
COc1ccc(SS(=O)c2ccc(OC)cc2)cc1 (centres undefined),T/C,"dose: 100.0 mg/kg/injection, schedule: Q04DX002 (ip), vehicle: saline with Tween-80",100 % of control
same,T/C,"dose: 200.0 mg/kg/injection, schedule: Q04DX002 (ip), vehicle: saline with Tween-80",102 % of control
same,T/C,"dose: 400.0 mg/kg/injection, schedule: Q04DX002 (ip), vehicle: saline with Tween-80",102 % of control
CCOC(=O)c1cn(C)c2c1C(=O)C(C(=O)OCC)CCN2C(=O)OCC (centres undefined),T/C,[1],99 % of control
same,T/C,[2],105 % of control
same,T/C,[3],107 % of control
O=C1c2cccc3cccc(c23)C(=O)N1CC1CCCO1 (centres undefined),T/C,[4],99 % of control
same,T/C,[5],101 % of control
same,T/C,[6],94 % of control
Cc1cc(Br)ccc1N=Cc1ccc(C=Nc2ccc(Br)cc2C)cc1,T/C,[7],90 % of control
same,T/C,[8],86 % of control
same,T/C,[9],92 % of control
CCCCCCCCCc1ccc(OC(C)OCCOCCOCC)cc1 (centres undefined),T/C,[10],98 % of control
same,T/C,[11],98 % of control
same,T/C,[12],98 % of control
Cc1ccc(NC(=O)C#N)cc1,T/C,"dose: 15.0 mg/kg/injection, schedule: Q01DX005 (ip), vehicle: saline with Tween-80",107 % of control
same,T/C,"dose: 30.0 mg/kg/injection, schedule: Q01DX005 (ip), vehicle: saline with Tween-80",96 % of control
CNC(=O)N(C)c1cc(N(C)C)nc(OC)n1,T/C,"dose: 4.5 mg/kg/injection, schedule: Q01DX005 (ip), vehicle: saline + alcohol",100 % of control
same,T/C,"dose: 9.0 mg/kg/injection, schedule: Q01DX005 (ip), vehicle: saline + alcohol",90 % of control
same,T/C,"dose: 18.0 mg/kg/injection, schedule: Q01DX005 (ip), vehicle: saline + alcohol",98 % of control
same,T/C,"dose: 36.0 mg/kg/injection, schedule: Q01DX005 (ip), vehicle: saline + alcohol",98 % of control
same,T/C,"dose: 72.0 mg/kg/injection, schedule: Q01DX005 (ip), vehicle: saline + alcohol",101 % of control
Cc1cc(/C=C/c2ccccc2)nc(/C=C/c2ccccc2)c1,T/C,[10],104 % of control
same,T/C,[11],97 % of control
same,T/C,[12],100 % of control
COc1ccc(-c2nc(SCC(=O)O)n(-c3ccccn3)c2-c2ccc(OC)cc2)cc1,T/C,"dose: 100.0 mg/kg/injection, schedule: Q01DX001 (ip), vehicle: water",100 % of control
same,T/C,"dose: 200.0 mg/kg/injection, schedule: Q01DX001 (ip), vehicle: water",91 % of control
CCn1c(=O)c2n[nH]nc2n(C2CC2)c1=O,T/C,[7],92 % of control
same,T/C,[8],96 % of control
same,T/C,[9],105 % of control
COC(=O)NC1=Nc2ccccc2N(C(=O)C(C)C)S1,T/C,"dose: 50.0 mg/kg/injection, schedule: Q01DX005 (ip), vehicle: Klucel (hydroxypropylcellulose) (HPC)",100 % of control
same,T/C,"dose: 100.0 mg/kg/injection, schedule: Q01DX005 (ip), vehicle: Klucel (hydroxypropylcellulose) (HPC)",101 % of control
same,T/C,"dose: 200.0 mg/kg/injection, schedule: Q01DX005 (ip), vehicle: Klucel (hydroxypropylcellulose) (HPC)",97 % of control
CN(C)c1ccc(C(=C2C=CC(=[N+](C)C)C=C2)c2ccccc2Cl)cc1,T/C,"dose: 1.56 mg/kg/injection, schedule: Q01DX005 (ip), vehicle: saline with Tween-80",117 % of control
same,T/C,"dose: 3.13 mg/kg/injection, schedule: Q01DX005 (ip), vehicle: saline with Tween-80",117 % of control and 121 % of control
same,T/C,"dose: 6.25 mg/kg/injection, schedule: Q01DX005 (ip), vehicle: saline with Tween-80",118 % of control (2×) and 121 % of control
same,T/C,"dose: 12.5 mg/kg/injection, schedule: Q01DX005 (ip), vehicle: saline with Tween-80",112 % of control and 88 % of control
CCCCN(CCCC)CC(O)c1c(C)c2ccccc2c2ccccc12 (centres undefined),T/C,"dose: 9.0 mg/kg/injection, schedule: Q01DX009 (ip), vehicle: saline with Tween-80",100 % of control
same,T/C,"dose: 18.0 mg/kg/injection, schedule: Q01DX009 (ip), vehicle: saline with Tween-80",100 % of control
same,T/C,"dose: 36.0 mg/kg/injection, schedule: Q01DX009 (ip), vehicle: saline with Tween-80",100 % of control
Cn1c([N+](=O)[O-])cnc1CSC(=S)N1CCN(C(=S)SCc2ncc([N+](=O)[O-])n2C)CC1,T/C,[1],99 % of control and 104 % of control and 96 % of control
same,T/C,[2],101 % of control and 93 % of control and 95 % of control
same,T/C,[3],102 % of control and 107 % of control and 92 % of control
CCN(CC)CC[n+]1ccc2c(C)c3[nH]c4ccc(O)cc4c3c(C)c2c1,T/C,"dose: 1.56 mg/kg/injection, schedule: Q04DX003 (ip), vehicle: saline",167 % of control
same,T/C,"dose: 1.56 mg/kg/injection, schedule: Q04DX003 (ip), vehicle: suspension in saline",155 % of control
same,T/C,"dose: 1.56 mg/kg/injection, schedule: Q04DX003 (ip), vehicle: water",156 % of control
same,T/C,"dose: 3.12 mg/kg/injection, schedule: Q04DX003 (ip), vehicle: saline",155 % of control
same,T/C,"dose: 3.12 mg/kg/injection, schedule: Q04DX003 (ip), vehicle: suspension in saline",169 % of control
same,T/C,"dose: 3.12 mg/kg/injection, schedule: Q04DX003 (ip), vehicle: water",161 % of control
same,T/C,"dose: 6.25 mg/kg/injection, schedule: Q04DX003 (ip), vehicle: saline",180 % of control and 213 % of control
same,T/C,"dose: 6.25 mg/kg/injection, schedule: Q04DX003 (ip), vehicle: suspension in saline",169 % of control
same,T/C,"dose: 6.25 mg/kg/injection, schedule: Q04DX003 (ip), vehicle: water",166 % of control
same,T/C,"dose: 12.5 mg/kg/injection, schedule: Q04DX003 (ip), vehicle: saline",174 % of control and 177 % of control
same,T/C,"dose: 12.5 mg/kg/injection, schedule: Q04DX003 (ip), vehicle: suspension in saline",226 % of control
same,T/C,"dose: 12.5 mg/kg/injection, schedule: Q04DX003 (ip), vehicle: water",181 % of control
same,T/C,"dose: 25.0 mg/kg/injection, schedule: Q04DX003 (ip), vehicle: saline",194 % of control and 210 % of control
same,T/C,"dose: 25.0 mg/kg/injection, schedule: Q04DX003 (ip), vehicle: suspension in saline",164 % of control
same,T/C,"dose: 50.0 mg/kg/injection, schedule: Q04DX003 (ip), vehicle: saline",178 % of control and 203 % of control
same,T/C,"dose: 50.0 mg/kg/injection, schedule: Q04DX003 (ip), vehicle: suspension in saline",180 % of control
CN(C)Cc1c(/C=C/C2=[N+](C)c3ccccc3C2(C)C)[nH]c2ccccc12,T/C,"dose: 50.0 mg/kg/injection, schedule: Q01DX009 (ip), vehicle: Klucel (hydroxypropylcellulose) (HPC)",110 % of control
same,T/C,"dose: 100.0 mg/kg/injection, schedule: Q01DX009 (ip), vehicle: Klucel (hydroxypropylcellulose) (HPC)",107 % of control
same,T/C,"dose: 200.0 mg/kg/injection, schedule: Q01DX009 (ip), vehicle: Klucel (hydroxypropylcellulose) (HPC)",110 % of control
CCC(C)NCCNCCNC(C)CC (centres undefined),T/C,"dose: 6.25 mg/kg/injection, schedule: Q01DX009 (ip), vehicle: saline",100 % of control
same,T/C,"dose: 12.5 mg/kg/injection, schedule: Q01DX009 (ip), vehicle: saline",100 % of control
same,T/C,"dose: 25.0 mg/kg/injection, schedule: Q01DX009 (ip), vehicle: saline",100 % of control
NC(N)=NC(N)=NCCS(=O)(=O)O,T/C,"dose: 50.0 mg/kg/injection, schedule: Q01DX005 (ip), vehicle: saline",110 % of control
same,T/C,"dose: 100.0 mg/kg/injection, schedule: Q01DX005 (ip), vehicle: saline",110 % of control
same,T/C,"dose: 200.0 mg/kg/injection, schedule: Q01DX005 (ip), vehicle: saline",117 % of control
CC(C)=C1[C@@H]2C=C[C@@H]1[C@H]1C(=O)[C@@H]3O[C@]3(CO)C(=O)[C@H]12,T/C,[4],106 % of control
same,T/C,[5],101 % of control
same,T/C,[6],108 % of control
N#CC(CC[N+](=O)[O-])(c1ccccc1)C(c1ccccc1)[N+](=O)[O-] (centres undefined),T/C,"dose: 12.5 mg/kg/injection, schedule: Q01DX001 (ip), vehicle: saline with Tween-80",87 % of control
same,T/C,"dose: 25.0 mg/kg/injection, schedule: Q01DX001 (ip), vehicle: saline with Tween-80",96 % of control
CCOC(=O)c1ccc(NC(=O)Nc2cccc3c(O)cccc23)cc1,T/C,"dose: 60.0 mg/kg/injection, schedule: Q01DX005 (ip), vehicle: Klucel (hydroxypropylcellulose) (HPC)",89 % of control
same,T/C,"dose: 120.0 mg/kg/injection, schedule: Q01DX005 (ip), vehicle: Klucel (hydroxypropylcellulose) (HPC)",96 % of control
same,T/C,"dose: 240.0 mg/kg/injection, schedule: Q01DX005 (ip), vehicle: Klucel (hydroxypropylcellulose) (HPC)",88 % of control
